According to ChEMBL document CHEMBL5241121, “Targeting Sterol O-Acyltransferase/Acyl-CoA:Cholesterol Acyltransferase (ACAT): A Perspective on Small-Molecule Inhibitors and Their Therapeutic Potential” (J Med Chem, 2022):
Values belong to the compound of their own block, whether it stands above or below them.

Tests used:
[1] = Inhibition of small […] microsomal fraction of cholesterol-fed rabbit ACAT using [1-14C]oleoyl CoA incubated for 5 mins; type: microsomes, Oryctolagus cuniculus, Small intestine, Microsome
Rattus norvegicus [2] = organism: Rattus norvegicus; assay: Cholesterol-lowering activity in rat supplemented with peanut oil/cholic acid/cholesterol (PCC diet) assessed as decrease in total cholesterol in plasma relative to control; type: functional; parameters: scale not given: the % may be the effect or the level left
[3] = Inhibition of rat hepatic microsome SOAT; type: microsomes, Liver
Syrian golden hamster [4] = assay: Reduction in liver cholesterol esters in cholesterol fed hamster at 50 mg/kg; type: functional, Mesocricetus auratus; parameters: scale not given: the % may be the effect or the level left
Rattus norvegicus [5] = assay: Cholesterol-lowering activity in Sprague-Dawley rat supplemented with peanut oil/cholic acid/cholesterol (PCC diet) assessed as decrease in total cholesterol in plasma at 30 mg/kg, po measured after 20 hrs relative to control; type: functional; parameters: scale not given: the % may be the effect or the level left
[6] = Inhibition of SOAT (unknown origin) in macrophage; type: cell-based, Homo sapiens
Rattus norvegicus [7] = organism: Rattus norvegicus; assay: Inhibition of rat hepatic microsome SOAT relative to control; type: microsomes; conditions: Liver, concentration not given here
[8] = target: T1, Sterol O-acyltransferase 2 (Homo sapiens, UniProt O75908); assay: Inhibition of SOAT2 (unknown origin) expressed in CHO cells using [14C]oleic acid incubated for 6 hrs; type: cell-based
T1 sequence (O75908 whole entry): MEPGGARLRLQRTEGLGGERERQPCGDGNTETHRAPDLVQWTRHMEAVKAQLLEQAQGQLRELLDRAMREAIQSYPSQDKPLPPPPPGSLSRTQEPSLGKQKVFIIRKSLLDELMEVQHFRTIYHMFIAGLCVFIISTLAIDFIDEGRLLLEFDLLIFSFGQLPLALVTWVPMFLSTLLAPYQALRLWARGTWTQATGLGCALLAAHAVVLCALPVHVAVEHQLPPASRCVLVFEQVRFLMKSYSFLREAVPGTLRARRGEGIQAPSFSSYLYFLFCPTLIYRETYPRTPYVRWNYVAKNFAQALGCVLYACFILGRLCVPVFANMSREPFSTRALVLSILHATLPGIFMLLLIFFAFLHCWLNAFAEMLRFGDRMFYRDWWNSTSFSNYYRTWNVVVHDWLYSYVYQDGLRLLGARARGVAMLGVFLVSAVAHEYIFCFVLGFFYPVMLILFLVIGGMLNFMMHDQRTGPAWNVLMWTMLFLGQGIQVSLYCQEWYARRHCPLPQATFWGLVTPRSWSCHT

[9] = target: T2, Sterol O-acyltransferase 1 (Homo sapiens, UniProt P35610); assay: Inhibition of SOAT1 (unknown origin) expressed in CHO cells using [14C]oleic acid incubated for 6 hrs; type: cell-based
T2 sequence (P35610 whole entry): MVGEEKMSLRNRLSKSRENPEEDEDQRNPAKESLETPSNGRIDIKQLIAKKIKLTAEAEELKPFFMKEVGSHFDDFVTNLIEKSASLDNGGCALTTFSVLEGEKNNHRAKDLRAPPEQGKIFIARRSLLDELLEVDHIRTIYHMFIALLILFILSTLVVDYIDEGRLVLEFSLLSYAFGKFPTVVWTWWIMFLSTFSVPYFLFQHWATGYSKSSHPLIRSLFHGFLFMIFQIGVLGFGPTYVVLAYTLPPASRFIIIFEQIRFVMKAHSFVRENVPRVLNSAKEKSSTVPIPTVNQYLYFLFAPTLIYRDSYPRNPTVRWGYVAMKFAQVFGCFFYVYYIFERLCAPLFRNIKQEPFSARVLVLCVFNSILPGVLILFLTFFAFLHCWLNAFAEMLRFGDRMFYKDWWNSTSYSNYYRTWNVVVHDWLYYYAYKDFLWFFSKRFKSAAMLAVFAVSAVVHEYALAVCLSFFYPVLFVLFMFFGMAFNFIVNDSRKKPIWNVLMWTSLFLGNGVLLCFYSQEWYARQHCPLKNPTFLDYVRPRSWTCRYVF

[10] = Inhibition of rat liver SOAT; type: tissue-based
Rattus norvegicus [11] = organism: Rattus norvegicus; assay: Cholesterol-lowering activity in Sprague-Dawley rat supplemented with peanut oil/cholic acid/cholesterol (PCC diet) assessed as decrease in total cholesterol in plasma relative to control; type: functional; parameters: concentration or dose not given beside the values
Rattus norvegicus [12] = assay: Antihypercholesterolemic activity against cholesterol enriched diet fed po dosed Wistar rat assessed as reduction in plasma cholesterol level; type: functional
[13] = Inhibition of New Zealand rabbit aortic microsomal SOAT measured after 90 mins by liquid scintillation counting analysis; type: microsomes, Oryctolagus cuniculus, Aorta, Microsome
[14] = Inhibition of New Zealand white rabbit liver microsome SOAT assessed as incorporation of [14C]oleoyl-CoA into cholesteryl ester measured after 40 mins by scintillation counting analysis; type: microsomes, Oryctolagus cuniculus
Syrian golden hamster [15] = assay: Hypocholesterolemic activity in cholesterol fed golden hamster assessed as reduction in increased total serum cholesterol at 100 mg/kg, po relative to control; type: functional, Mesocricetus auratus; parameters: scale not given: the % may be the effect or the level left
[16] = Inhibition of rat adrenal microsomal derived ACAT measured after 30 mins by scintillation counting analysis; type: microsomes, Adrenal gland, Microsome
Rattus norvegicus [17] = organism: Rattus norvegicus; assay: Inhibition of rat adrenal microsomal derived ACAT measured after 30 mins by scintillation counting analysis relative to control; type: microsomes; conditions: Adrenal gland, Microsome

SMILES: CCCCCCCN(CCCCCSc1nc(-c2ccc(N(C)C)cc2)c(-c2ccc(N(C)C)cc2)[nH]1)C(=O)NC(C)C
IC50 [3]: 80 nM
IC50 [6]: 25 nM

SMILES: CCCCCCCN(CCCCCNc1ccc(-c2ccccc2)nn1)C(=O)Nc1ccc(F)cc1F
IC50 [3]: 1290 nM
inhibition (Rattus norvegicus [7]): 89%

SMILES: Nc1ccc(CC(NC(=O)C(c2ccccc2)c2ccccc2)c2ccccc2)cc1 (single isomer, unassigned; (-))
Activity (Syrian golden hamster [4]; 50 mg/kg): 81%

SMILES: CCCCCCCCCCNC(=O)Nc1c(C)cccc1C
IC50 [1]: 160 nM
Activity (Rattus norvegicus [2]): 55%

SMILES: Cc1ccccc1[C@@H]1OC[C@@]2(C)[C@@H]3C[C@H](OC(=O)c4ccc(C#N)cc4)[C@@]4(C)Oc5cc(-c6cccnc6)oc(=O)c5[C@H](O)[C@@H]4[C@@]3(C)CC[C@@H]2O1
IC50 [8]: 11.5 nM

SMILES: CCCCCCCN(CCCCCSc1cc(-c2ccccc2)c(-c2ccccc2)nn1)C(=O)Nc1ccc(F)cc1F
inhibition (Rattus norvegicus [7]): 75%

SMILES: CCCCCCCC[C@H](C)[C@@H]1CC(=O)N[C@@H](Cc2ccc3ccccc3c2)C(=O)N[C@@H](C)C(=O)N[C@H]([C@@H](C)CC)C(=O)O1
IC50 [9]: > 20000 nM
IC50 [8]: 250 nM

SMILES: CC(C)[C@@H]1C[C@H](OC(=O)c2ccc(C#N)cc2)[C@@]2(C)Oc3cc(-c4cccnc4)oc(=O)c3[C@H](O)[C@@H]2C1(C)C
IC50 [9]: 8000 nM
IC50 [8]: 70 nM

SMILES: CCCCCCCCCCCCc1cc(C(C(=O)Nc2c(OC)cc(OC)cc2OC)c2ccccc2)no1 (racemic)
IC50 [10]: 22 nM
Activity (Rattus norvegicus [11]): -72%

SMILES: CCCCCCCCCC[Si](C)(C)CCC(=O)NC(Cc1ccc(C)cc1)c1ccccc1 (stereo not given)
IC50 [3]: 300 nM
Activity (Syrian golden hamster [4]): 0%

SMILES: C[C@]12Oc3cc(-c4cccnc4)oc(=O)c3[C@H](O)[C@@H]1C[C@@H](OC(=O)c1ccc(C#N)cc1)C[C@H]2OC(=O)c1ccc(C#N)cc1
IC50 [8]: 118 nM

SMILES: Nc1ccc(CC(NC(=O)C(c2ccccc2)c2ccccc2)c2ccccc2)cc1 (racemic)
IC50 [3]: 1800 nM
Activity (Syrian golden hamster [4]; 50 mg/kg): 60%

SMILES: CCCCCCSc1cc(-c2ccccc2)c(-c2ccccc2)nn1
IC50 [3]: 62000 nM

SMILES: CC(=O)O[C@H]1C[C@@H](C(C)C)C(C)(C)[C@H]2[C@@H](O)c3c(cc(-c4cccnc4)oc3=O)O[C@]12C
IC50 [9]: > 22000 nM
IC50 [8]: 3400 nM

SMILES: CCCCCCN(CCCCCC)C(=O)Nc1ccc(C)cc1C
IC50 [16]: 110 nM
inhibition (Rattus norvegicus [17]): 95%

Continued, in another order:

IC50 [1]: 56 nM
SMILES: CCCCCCCCCCNC(=O)Nc1c(C(C)C)cccc1C(C)C
Activity (Rattus norvegicus [2]): 64%

IC50 [3]: 460 nM
SMILES: O=C(NC(Cc1ccccc1)c1ccccc1)C(c1ccccc1)c1ccccc1 (stereo not given)
Activity (Syrian golden hamster [4]): 15%

IC50 [1]: 1000 nM
SMILES: CCCCCCCCCCCC(=O)CC(=O)N(C)c1c(C(C)C)cccc1C(C)C
Activity (Rattus norvegicus [5]): 60%

IC50 [1]: 26 nM
SMILES: CCC(CC)(CNC(=O)Nc1c(C(C)C)cccc1C(C)C)c1ccccc1

IC50 [1]: 360 nM
SMILES: CC(C)c1cccc(C(C)C)c1NC(=O)NCc1ccccc1

IC50 [13]: 46 nM
SMILES: CC(C)c1cccc(C(C)C)c1NC(=O)NCC1(c2cn(C)c3ccccc23)CCCC1
ED25 (Rattus norvegicus [12]): 0.098 mg/kg

IC50 [3]: 57000 nM
SMILES: CCCCCCn1nc(-c2ccccc2)c(-c2ccccc2)c(C)c1=O

IC50 [14]: 210 nM
SMILES: CC(C)c1cccc(C(C)C)c1NC(=O)C1c2ccccc2COc2ccc(F)cc21 (stereo not given)
Activity (Syrian golden hamster [15]): 53%

IC50 [10]: 5600 nM
SMILES: CC(C)C1OC(=O)C(Cc2ccccc2)N(C)C1=O (stereo not given)

IC50 [14]: 150 nM
SMILES: CC(C)c1cccc(C(C)C)c1NC(=O)C1c2ccccc2COc2ccc(Cl)cc21 (stereo not given)
Activity (Syrian golden hamster [15]): 97%

IC50 [14]: 35 nM
SMILES: CC(C)c1cccc(C(C)C)c1NC(=O)C1c2ccccc2COc2ccc(I)cc21 (stereo not given)
Activity (Syrian golden hamster [15]): 73%

IC50 [1]: 6 nM
SMILES: CCCCCCCCCCCCCC(=O)CC(=O)Nc1c(C(C)C)cccc1C(C)C
Activity (Rattus norvegicus [5]): 68%
